Reference: PubChem BioAssay AID2060503 (Molecular Pharmacology Branch, DTP, NCI, 2025)

Test system: 817829-284-R-J1-PDC complex spheroids, viability
Test: Anticancer human tumor 817829-284-R-J1-PDC patient-derived colon adenocarcinoma cell line growth inhibition [GQUAD]
Conditions: for IC50: curve of first compound; for viability, T/C: stronger effect = lower value
Summary of the method: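 Multi-cell-type spheroids of tumor cells with HUVEC and mesenchymal stem cells, treated with drug combinations. Concentrations descend in half-log steps from near clinical Cmax, or from 10 microM where Cmax is unknown; viability read-out.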

[1] = second compound 0.0316 µM, first compound 0.0316 µM
[2] = second compound 0.0316 µM, first compound 0.1 µM
[3] = second compound 0.0316 µM, first compound 0.316 µM
[4] = second compound 0.0316 µM, first compound 1 µM
[5] = second compound 0.0316 µM, first compound 3.16 µM
[6] = second compound 0.0316 µM, first compound 10 µM
[7] = second compound 0.1 µM, first compound 0.0316 µM
[8] = second compound 0.1 µM, first compound 0.1 µM
[9] = second compound 0.1 µM, first compound 0.316 µM
[10] = second compound 0.1 µM, first compound 1 µM
[11] = second compound 0.1 µM, first compound 3.16 µM
[12] = second compound 0.1 µM, first compound 10 µM
[13] = second compound 0.316 µM, first compound 0.0316 µM
[14] = second compound 0.316 µM, first compound 0.1 µM
[15] = second compound 0.316 µM, first compound 0.316 µM
[16] = second compound 0.316 µM, first compound 1 µM
[17] = second compound 0.316 µM, first compound 3.16 µM
[18] = second compound 0.316 µM, first compound 10 µM
[19] = second compound 1 µM, first compound 0.0316 µM
[20] = second compound 1 µM, first compound 0.1 µM
[21] = second compound 1 µM, first compound 0.316 µM
[22] = second compound 1 µM, first compound 1 µM
[23] = second compound 1 µM, first compound 3.16 µM
[24] = second compound 1 µM, first compound 10 µM
[25] = second compound 3.16 µM, first compound 0.0316 µM
[26] = second compound 3.16 µM, first compound 0.1 µM
[27] = second compound 3.16 µM, first compound 0.316 µM
[28] = second compound 3.16 µM, first compound 1 µM
[29] = second compound 3.16 µM, first compound 3.16 µM
[30] = second compound 3.16 µM, first compound 10 µM
[31] = second compound 10 µM, first compound 0.0316 µM
[32] = second compound 10 µM, first compound 0.1 µM
[33] = second compound 10 µM, first compound 0.316 µM
[34] = second compound 10 µM, first compound 1 µM
[35] = second compound 10 µM, first compound 3.16 µM
[36] = second compound 10 µM, first compound 10 µM
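Further: spheroids exposed to agents for 7 days before readout.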
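Wherever viability, T/C is given: percent viability relative to DMSO vehicle control taken as 100%.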

C=CCn1c(=O)c2cnc(Nc3ccc(N4CCN(C)CC4)cc3)nc2n1-c1cccc(C(C)(C)O)n1 + Cc1[nH]c2ccc(F)cc2c1-c1nc2c3cccnc3c3ncccc3c2[nH]1
IC50 (second compound 0.0316 µM): 220 nM | IC50 (second compound 0.1 µM): 240 nM | IC50 (second compound 0.316 µM): 259 nM | IC50 (second compound 1 µM): 221 nM | IC50 (second compound 3.16 µM): < 31.6 nM | IC50 (second compound 10 µM): < 31.6 nM | viability, T/C [1]: 101% | viability, T/C [2]: 92.9% | viability, T/C [3]: 30.2% | viability, T/C [4]: 8.8% | viability, T/C [5]: 6.61% | viability, T/C [6]: 5.37% | viability, T/C [7]: 82.1% | viability, T/C [8]: 111% | viability, T/C [9]: 35.2% | viability, T/C [10]: 7.33% | viability, T/C [11]: 6.25% | viability, T/C [12]: 4.08% | viability, T/C [13]: 97.2% | viability, T/C [14]: 109% | viability, T/C [15]: 38.9% | viability, T/C [16]: 8.37% | viability, T/C [17]: 6.05% | viability, T/C [18]: 4.81% | viability, T/C [19]: 104% | viability, T/C [20]: 103% | viability, T/C [21]: 26.2% | viability, T/C [22]: 8.6% | viability, T/C [23]: 6.38% | viability, T/C [24]: 4.1% | viability, T/C [25]: 46.1% | viability, T/C [26]: 30.2% | viability, T/C [27]: 8.17% | viability, T/C [28]: 5.38% | viability, T/C [29]: 4.83% | viability, T/C [30]: 4.49% | viability, T/C [31]: 28.6% | viability, T/C [32]: 14.8% | viability, T/C [33]: 6.57% | viability, T/C [34]: 4.68% | viability, T/C [35]: 5.07% | viability, T/C [36]: 4.08%

COc1ncnc(C2CC2)c1-c1ncc2cnn(Cc3ccc(-c4nc(C(F)(F)F)cn4C(C)C)cc3)c2n1 + Cc1[nH]c2ccc(F)cc2c1-c1nc2c3cccnc3c3ncccc3c2[nH]1
IC50 (second compound 0.0316 µM): > 10000 nM | IC50 (second compound 0.1 µM): > 10000 nM | IC50 (second compound 0.316 µM): > 10000 nM | IC50 (second compound 1 µM): > 10000 nM | IC50 (second compound 3.16 µM): > 10000 nM | IC50 (second compound 10 µM): 32 nM | viability, T/C [1]: 99.1% | viability, T/C [2]: 113% | viability, T/C [3]: 101% | viability, T/C [4]: 97.9% | viability, T/C [5]: 113% | viability, T/C [6]: 109% | viability, T/C [7]: 96.6% | viability, T/C [8]: 115% | viability, T/C [9]: 99.8% | viability, T/C [10]: 111% | viability, T/C [11]: 108% | viability, T/C [12]: 115% | viability, T/C [13]: 105% | viability, T/C [14]: 119% | viability, T/C [15]: 101% | viability, T/C [16]: 94.2% | viability, T/C [17]: 110% | viability, T/C [18]: 129% | viability, T/C [19]: 118% | viability, T/C [20]: 105% | viability, T/C [21]: 117% | viability, T/C [22]: 98.9% | viability, T/C [23]: 108% | viability, T/C [24]: 118% | viability, T/C [25]: 63.5% | viability, T/C [26]: 73.5% | viability, T/C [27]: 56.4% | viability, T/C [28]: 79.9% | viability, T/C [29]: 84.8% | viability, T/C [30]: 68.7% | viability, T/C [31]: 50.2% | viability, T/C [32]: 26.4% | viability, T/C [33]: 27.8% | viability, T/C [34]: 40.9% | viability, T/C [35]: 15.1% | viability, T/C [36]: 18.8%

Cc1[nH]c2ccccc2c1CCNCc1ccc(/C=C/C(=O)NO)cc1 + Cc1[nH]c2ccc(F)cc2c1-c1nc2c3cccnc3c3ncccc3c2[nH]1
IC50 (second compound 0.0316 µM): 54.5 nM | IC50 (second compound 0.1 µM): 53.6 nM | IC50 (second compound 0.316 µM): 55.2 nM | IC50 (second compound 1 µM): 51 nM | IC50 (second compound 3.16 µM): 20.2 nM | IC50 (second compound 10 µM): < 0.999 nM | viability, T/C (second compound 0.0316 µM, first compound 0.000999 µM): 89.7% | viability, T/C (second compound 0.0316 µM, first compound 0.00316 µM): 102% | viability, T/C (second compound 0.0316 µM, first compound 0.00999 µM): 121% | viability, T/C [1]: 91.4% | viability, T/C (second compound 0.0316 µM, first compound 0.0999 µM): 4.1% | viability, T/C [3]: 0.13% | viability, T/C (second compound 0.1 µM, first compound 0.000999 µM): 110% | viability, T/C (second compound 0.1 µM, first compound 0.00316 µM): 108% | viability, T/C (second compound 0.1 µM, first compound 0.00999 µM): 125% | viability, T/C [7]: 89.8% | viability, T/C (second compound 0.1 µM, first compound 0.0999 µM): 3.87% | viability, T/C [9]: 0.11% | viability, T/C (second compound 0.316 µM, first compound 0.000999 µM): 99.5% | viability, T/C (second compound 0.316 µM, first compound 0.00316 µM): 119% | viability, T/C (second compound 0.316 µM, first compound 0.00999 µM): 121% | viability, T/C [13]: 92.7% | viability, T/C (second compound 0.316 µM, first compound 0.0999 µM): 4.91% | viability, T/C [15]: 0.1% | viability, T/C (second compound 1 µM, first compound 0.000999 µM): 101% | viability, T/C (second compound 1 µM, first compound 0.00316 µM): 112% | viability, T/C (second compound 1 µM, first compound 0.00999 µM): 117% | viability, T/C [19]: 82% | viability, T/C (second compound 1 µM, first compound 0.0999 µM): 5.56% | viability, T/C [21]: 0.1% | viability, T/C (second compound 3.16 µM, first compound 0.000999 µM): 71.3% | viability, T/C (second compound 3.16 µM, first compound 0.00316 µM): 99.3% | viability, T/C (second compound 3.16 µM, first compound 0.00999 µM): 65.2% | viability, T/C [25]: 38.8% | viability, T/C (second compound 3.16 µM, first compound 0.0999 µM): 3.35% | viability, T/C [27]: 0.16% | viability, T/C (second compound 10 µM, first compound 0.000999 µM): 41.8% | viability, T/C (second compound 10 µM, first compound 0.00316 µM): 56.7% | viability, T/C (second compound 10 µM, first compound 0.00999 µM): 40.3% | viability, T/C [31]: 28.5% | viability, T/C (second compound 10 µM, first compound 0.0999 µM): 2.12% | viability, T/C [33]: 0.24%
